Experimental data reported in ChEMBL document CHEMBL5096215, “Design, synthesis and antitumor efficacy evaluation of a series of novel β-elemene-based macrocycles” (Bioorg Med Chem, 2022).

Tests used:
U-251 [1] = assay: Antiproliferative activity against human U-251 cells assessed as inhibition of cell growth at 50 uM measured after 48 hrs by CCK8 assay relative to control; assay type: functional
U-251 [2] = assay: Antiproliferative activity against human U-251 cells assessed as inhibition of cell growth measured after 48 hrs by CCK8 assay relative to control; assay type: functional, cell-based; details: U-251, 48 h
[3] = Antiproliferative activity against human U-87 MG cells assessed as inhibition of cell growth at 50 uM measured after 48 hrs by CCK8 assay relative to control; assay type: functional, U-87MG ATCC
PC-3 [4] = assay: Antiproliferative activity against human PC-3 cells assessed as inhibition of cell growth measured after 48 hrs by CCK8 assay relative to control; assay type: functional, cell-based; details: PC-3, 48 h
HCT-116 [5] = assay: Antiproliferative activity against human HCT-116 cells assessed as inhibition of cell growth measured after 48 hrs by CCK8 assay relative to control; assay type: functional, cell-based; details: HCT-116, 48 h
[6] = Antiproliferative activity against human U-87 MG cells assessed as inhibition of cell growth measured after 48 hrs by CCK8 assay relative to control; assay type: functional, cell-based, U-87MG ATCC
A549 [7] = assay: Antiproliferative activity against human A549 cells assessed as inhibition of cell growth measured after 48 hrs by CCK8 assay relative to control; assay type: functional, cell-based; details: A549, 48 h
PC-3 [8] = assay: Antiproliferative activity against human PC-3 cells assessed as inhibition of cell growth at 50 uM measured after 48 hrs by CCK8 assay relative to control; assay type: functional
HCT-116 [9] = assay: Antiproliferative activity against human HCT-116 cells assessed as inhibition of cell growth at 50 uM measured after 48 hrs by CCK8 assay relative to control; assay type: functional
A549 [10] = assay: Antiproliferative activity against human A549 cells assessed as inhibition of cell growth at 50 uM measured after 48 hrs by CCK8 assay relative to control; assay type: functional
U-251 [11] = assay: Potency index, […] for antiproliferative activity against human U-251 cells assessed as inhibition of cell growth measured after 48 hrs by CCK8 assay; assay type: functional
HCT-116 [12] = assay: Potency index, […] for antiproliferative activity against human HCT-116 cells assessed as inhibition of cell growth measured after 48 hrs by CCK8 assay; assay type: functional
A549 [13] = assay: Potency index, […] for antiproliferative activity against human A549 cells assessed as inhibition of cell growth measured after 48 hrs by CCK8 assay; assay type: functional
[14] = Potency index, […] for antiproliferative activity against human U-87 MG cells assessed as inhibition of cell growth measured after 48 hrs by CCK8 assay; assay type: functional, U-87MG ATCC
PC-3 [15] = assay: Potency index, […] for antiproliferative activity against human PC-3 cells assessed as inhibition of cell growth measured after 48 hrs by CCK8 assay; assay type: functional

| IC50 (U-251 [2]) | IC50 (PC-3 [4]) | IC50 (HCT-116 [5]) | IC50 (A549 [7]) | SMILES | inhibition at 50 µM (U-251 [1]) | inhibition at 50 µM [3] | IC50 [6] | inhibition at 50 µM (PC-3 [8]) | inhibition at 50 µM (HCT-116 [9]) | inhibition at 50 µM (A549 [10]) | Ratio IC50 (U-251 [11]) | Ratio IC50 (HCT-116 [12]) | Ratio IC50 (A549 [13]) | Ratio IC50 [14] | Ratio IC50 (PC-3 [15]) |
| --- | --- | --- | --- | --- | --- | --- | --- | --- | --- | --- | --- | --- | --- | --- | --- |
| 181 µM | 276 µM | 782 µM | 227 µM | C=C[C@]1(C)CC[C@@H](C(=C)C)C[C@H]1C(=C)C | < 20% | < 20% | 266 µM | < 20% | < 20% | < 20% | – | – | – | – | – |
| 23 µM | 38.6 µM | 17.6 µM | 44.8 µM | C=C[C@]1(C)CC[C@@H]2C[C@H]1C(=C)CN(C)CCN(C)Cc1cccc(c1)CN(C)CCN(C)CC2=C | 98.5% | < 20% | – | 68.8% | 94.8% | 60.7% | 5 | 20 | 5 | 5 | 5 |
